According to patent US20220009906A1, “ISOINDOLIN-1-ONE DERIVATIVES USEFUL AS GRK2 INHIBITORS” (priority 2020, published 2022):

Target: T1, GRK2 (Homo sapiens, UniProt P25098)
T1 sequence (P25098 1-689): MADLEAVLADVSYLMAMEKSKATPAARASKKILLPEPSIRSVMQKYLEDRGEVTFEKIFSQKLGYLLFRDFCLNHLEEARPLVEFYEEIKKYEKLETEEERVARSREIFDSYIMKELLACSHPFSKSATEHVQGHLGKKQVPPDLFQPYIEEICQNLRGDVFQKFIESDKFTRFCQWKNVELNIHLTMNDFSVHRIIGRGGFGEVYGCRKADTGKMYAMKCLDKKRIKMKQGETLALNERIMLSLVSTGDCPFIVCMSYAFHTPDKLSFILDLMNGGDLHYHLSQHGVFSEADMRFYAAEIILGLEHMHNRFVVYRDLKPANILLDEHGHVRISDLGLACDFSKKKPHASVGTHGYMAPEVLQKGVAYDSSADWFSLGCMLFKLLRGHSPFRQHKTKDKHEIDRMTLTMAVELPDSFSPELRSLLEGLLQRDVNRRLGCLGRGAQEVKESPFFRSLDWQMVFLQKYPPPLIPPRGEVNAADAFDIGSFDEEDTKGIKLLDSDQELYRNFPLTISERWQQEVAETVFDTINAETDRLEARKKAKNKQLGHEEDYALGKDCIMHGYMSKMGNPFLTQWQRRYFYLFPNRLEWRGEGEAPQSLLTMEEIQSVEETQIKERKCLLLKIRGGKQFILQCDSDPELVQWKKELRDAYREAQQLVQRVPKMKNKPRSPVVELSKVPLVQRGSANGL
Assay: hGRK2 LANCE Ultra In Vitro Assay
Type: biochemical
Conditions: Biological Example 1 GRK2 Lancer IC50 (μM), 10 nM GRK2; 30 or 600 μM ATP (not stated which); multiple measurements listed individually
Method: hGRK2 LANCE Ultra In Vitro Assay
G-protein coupled receptor kinases (GR Kinases) desensitize activated G-protein coupled receptors (GPCRs), by phosphorylation of cytoplasmic loops or carboxyl-terminal tails of GPCRs. GRK2 is one of the 6 different GR kinases and is implicated in heart failure and diabetes.
This assay is sensitive and requires as low as 10 nM enzyme, in a total volume of 10 μL. In addition, the ATP concentration can be varied over a broad range, without interfering with the assay or changing the assay condition. […] Testing inhibitors routinely at both high and low ATP concentrations also enables identification of potential non-ATP competitive inhibitors.
Paroxetine was used as the reference compound in this assay.
Test compounds were dissolved in DMSO at 1 mM and were 3-fold serial diluted. The compound DMSO solutions were then added (100 nL) into a plate well using an acoustic dispenser. To each well was then added 20 nM GRK2 (5 μL) in assay buffer (20 mM HEPES, pH 7.5, 10 mM MgCl2, 0.001% Tween-20®). The plate was sealed and centrifuged at 1000 rpm for 1 min. The plate and wells containing a mixture of GRK2 and test compound were incubated at ambient temperature for 30 min (prior to initializing the enzymatic reaction).
Enzyme reactions were initiated by the addition of 4.9 μL Substrates/Eu-Ab mix to each well. […] Final concentrations of reagents in the assays were as follows: 20 mM HEPES, pH 7.5; 10 mM MgCl2; 0.001% Tween-20® (w/v); 30 or 600 μM ATP; 200 nM ULight-peptide; 4 nM Eu-Ab; 10 nM GRK2; and 1% DMSO.
The plates were sealed and centrifuged at 1000 rpm for 1 min. For reactions at low ATP concentration (30 μM), reaction mixtures were incubated at ambient temperature for 120 min. For reactions at high ATP concentration (600 μM), reaction mixtures were incubated at ambient temperature for 60 min.
The enzyme reactions were quenched by addition of 10 μL of 12 mM EDTA in 1× LANCE detection solution to each well. The plates were then incubated at ambient temperature for 30 min. Time-resolved fluorescence signal of reactions were read on an EnVision or PHERAstar plate reader with the following parameters: Excitation wavelength=337 nm; emission wavelength (donor)=620 nm; emission wavelength (acceptor)=665 nm.
The raw HTRF data were converted to % active as follows:
% active=(sample−NC)/(PC−NC)*100
where NC is the mean of negative control (reactions without GRK2), and PC is the mean of positive control (reactions with GRK2 but without inhibitor). IC50 values were determined from a 4-parameter fit, using the following equation:
Y=Bottom+(Top−Bottom)/(1+10^((Log IC50−X)*Hill slope))
where X=log10 of the compound concentration.

SMILES	IC50
COc1cccc([C@@H](C)N2Cc3c(cc(-c4cn[nH]c4)cc3-c3ccc(C(C)(C)O)nc3)C2=O)c1 [Compound 141, (R)-4-(6-(2-hydroxypropan-2-yl)pyridin-3-yl)-2-(1-(3-methoxyphenyl)ethyl)-6-(1H-pyrazol-4-yl)isoindolin-1-one]	0.02 µM
O=C1c2cc(-c3cn[nH]c3)ccc2CN1Cc1cccc(Oc2ccccc2)c1 [Compound 103]	0.033 µM
COc1cccc([C@@H](C)N2C(=O)c3cc(-c4cn[nH]c4)ccc3C23CCCC3)c1 [Compound 122, (R)-2′-(1-(3-methoxyphenyl)ethyl)-5′-(1H-pyrazol-4-yl)spiro[cyclopentane-1,1′-isoindolin]-3′-one]	1.18 µM
COC(=O)NC1CCCC12c1ccc(-c3cn[nH]c3)cc1C(=O)N2Cc1cccc(OC)c1 (stereo not drawn) [Compound 115, Methyl (2′-(3-methoxybenzyl)-3′-oxo-5′-(1H-pyrazol-4-yl)spiro[cyclopentane-1,1′-isoindolin]-2-yl)carbamate]	0.177 µM
COc1cccc([C@@H](C)N2Cc3c(cc(-c4cn[nH]c4)cc3-c3ccncc3)C2=O)c1 [Compound 121, (R)-2-(1-(3-methoxyphenyl)ethyl)-6-(1H-pyrazol-4-yl)-4-(pyridin-4-yl)isoindolin-1-one]	0.01 µM
O=C1c2cc(-c3cn[nH]c3)ccc2CN1Cc1cccc(O)c1 [Compound 135]	0.005 µM
CC(=O)OCC(=O)Oc1cccc(CN2Cc3ccc(-c4cn[nH]c4)cc3C2=O)c1 [Compound 138]	0.002 µM
COc1cccc([C@@H](C)N2Cc3c(cc(-c4cn[nH]c4)cc3-c3cccnc3N)C2=O)c1 [Compound 125, (R)-4-(2-aminopyridin-3-yl)-2-(1-(3-methoxyphenyl)ethyl)-6-(1H-pyrazol-4-yl)isoindolin-1-one]	0.022 µM
CNC(=O)c1cc(-c2ccc3c(c2)C(=O)N(Cc2cccc(OC)c2)C3)ccn1 [Compound 37, 4-(2-(3-methoxybenzyl)-3-oxoisoindolin-5-yl)-N-methylpicolinamide]	> 20 µM
COc1cccc(C(CO)N2C(=O)c3cc(-c4cn[nH]c4)ccc3C23CC=CC3)c1 (stereo not drawn) [Compound 78, 2′-(2-hydroxy-1-(3-methoxyphenyl)ethyl)-5′-(1H-pyrazol-4-yl)spiro[cyclopentane-1,1′-isoindolin]-3-en-3′-one]	0.06 µM
COc1cccc(C(C(=O)O)N2Cc3ccc(-c4cn[nH]c4)cc3C2=O)c1 (stereo not drawn) [Compound 71]	0.815 µM
COc1cccc(C(CCC(=O)O)N2Cc3ccc(-c4cn[nH]c4)cc3C2=O)c1 (stereo not drawn) [Compound 117, 4-(3-methoxyphenyl)-4-(1-oxo-6-(1H-pyrazol-4-yl)isoindolin-2-yl)butanoic acid]	0.404 µM
COCC(c1cccc(OC)c1)N1Cc2ccc(-c3cn[nH]c3)cc2C1=O (stereo not drawn) [Compound 59, 2-(2-methoxy-1-(3-methoxyphenyl)ethyl)-6-(1H-pyrazol-4-yl)isoindolin-1-one]	0.009 µM
COc1ccc(OC)c(C(CO)N2Cc3ccc(-c4cn[nH]c4)cc3C2=O)c1 (stereo not drawn) [Compound 52, 2-(1-(2,5-dimethoxyphenyl)-2-hydroxyethyl)-6-(1H-pyrazol-4-yl)isoindolin-1-one]	0.742 µM
O=C1c2cc(-c3cn[nH]c3)ccc2CN1Cc1cccc(OCc2nn[nH]n2)c1 [Compound 88, 2-(3-((2H-Tetrazol-5-yl)methoxy)benzyl)-6-(1H-pyrazol-4-yl)isoindolin-1-one]	0.029 µM
COc1cccc(C(CO)N2Cc3ccc(-c4cn[nH]c4)cc3C2=O)c1 (racemic) [Compound 38, 2-(2-hydroxy-1-(3-methoxyphenyl)ethyl)-6-(1H-pyrazol-4-yl)isoindolin-1-one]	0.006 µM
COc1cccc(C(CO)N2Cc3ccc(-c4cccnc4)cc3C2=O)c1 (stereo not drawn) [Compound 83, 2-(2-hydroxy-1-(3-methoxyphenyl)ethyl)-6-(pyridin-3-yl)isoindolin-1-one]	0.024 µM
COc1cccc(C(CO)N2Cc3c(cc(-c4cn[nH]c4)cc3-c3cncnc3)C2=O)c1 (stereo not drawn) [Compound 158, 2-(2-hydroxy-1-(3-methoxyphenyl)ethyl)-6-(1H-pyrazol-4-yl)-4-(pyrimidin-5-yl)isoindolin-1-one]	0.027 µM
